Results taken from patent US12377171B2, “Methods for treating and diagnosing blinding eye diseases” (Translatum Medicus Inc., priority 2012, dated 2025).
Entries after “also recorded” stand apart in the source; their conditions may differ.

System: circulating macrophage/monocyte population
Assay: Monocyte/macrophage depletion with gadolinium chloride in the NaIO3 model
Format: in vivo, rat
Excerpt: To determine the identity of the autofluorescent cells that coincide with the reticular pattern of FAF, excised retina were stained for with markers of the innate immune system, avoiding the 488 nm channel. Iba1 is a pan-microglial/macrophage marker and in the rat retina; antibodies against it identify the major phagocytic cell populations. […] Further, when compared against photoreceptor nuclear staining, this curvilinear pattern is seen to lie interposed between folds of the deformed ONL. This pattern of Iba1^+ cells corresponds with the pattern of hyperfluorescence observed in vivo by FAF imaging, and with the pattern of autofluorescent cells in excised retina. […] Importantly, at 7 days after NaIO3, all RPE cells are absent from the posterior eye cup, confirming that these cells cannot be responsible for the observed FAF. Also, identification of the autofluorescent cells as phagocytic was confirmed by comparison of imaging to preparations in which monocyte/macrophage depletion has been undertaken. Such depletion was achieved by treatment with gadolinium chloride (GAD). […]

`[Cl][Gd]([Cl])[Cl]` [GAD, gadolinium chloride] was tested, and the area of damage (7 days after NaIO3 and simultaneous GAD depletion) was “smaller areas of damage” and the “FAF pattern of NaIO3-induced outer retinal damage” value (GAD-treated vs untreated, after NaIO3) was “far less well defined reticular patterns of FAF; also recorded: profound alteration of the NaIO3-induced pattern of FAF and DNIRA; also recorded: less well-demarcated borders”.
